No end group written: not given here.
What was measured:
[1] = versus 2% sugar solution, cited from earlier work
[2] = Brazzein sweetness activity by ascending taste test with a trained human panel; format: in vivo, humans; settings: threshold concentration at which sweetness is first felt, 500 μl samples tasted from low to high concentration
Protocol: Since brazzein is a protein rather than a sugar, it is not possible to measure sweetness using a saccharimeter. Therefore, the activity was measured using a taste test that measures the activity of brazzein by allowing humans to directly taste brazzein. First, brazzein was dissolved in distilled water such that the final concentration was 1.0 mg/mL, samples were prepared by varying the test concentration so as to be 30 to 0.05 ng/mL, a threshold value for feeling the sweetness for the first time was obtained by tasting the sweetness of the solution, […] The specific activity measurement method was performed as follows.
A panel of a total of 20 males and 10 females trained in the sweetness test was configured. Prior to the activity measurement, the subjects were informed of the test date and time in advance to sample the taste in their best conditions, and were prohibited from drinking alcohol on the day before the test and eating food, smoking, and the like immediately before the test. The subjects trained in advance rinsed their mouths with prepared secondary distilled water and obtained the concentration at which the sweetness was first felt while sampling the taste of 500 μl of each sample according to the concentration of each type in the order of low concentration to high concentration. […]

Substance	sweetness relative to a 2% sugar solution, on a molar basis ([1]; molar basis)	sweetness relative to a 2% sugar solution, on a molecular weight basis ([1]; molecular weight basis)	sweetness activity relative to the same mass of sucrose [2]
Brazzein: natural sweet protein of 54 amino acid residues, 6.5 kDa, from the fruit of Pentadiplandra brazzeana Baillon (QDKCKKVYENYPVSKCQLANQCNYDCKLDKHARSGECFYDEKRNLQCICDYCEY; UniProt P56552 1-54, looked up)	~9500 fold	about 2000 fold	–
K. lactis wild-type brazzein: wild-type brazzein expressed in K. lactis, used as the sweetness comparison (QDKCKKVYENYPVSKCQLANQCNYDCKLDKHARSGECFYDEKRNLQCICDYCEY; ends and bridges not checked; cysteine pairing not given here; UniProt P56552 1-54, looked up) [reference compound]	–	–	2,309 (±6.8%) fold
S. cerevisiae wild-type brazzein: wild-type brazzein (SEQ ID NO: 3) secreted and expressed in Saccharomyces cerevisiae with the pESC-Brazzein vector (DKCKKVYENYPVSKCQLANQCNYDCKLDKHARSGECFYDEKRNLQCICDYCEY)	–	–	about 2,260 (±5.9%) fold
